Source: publication PMC4823711, “Allosteric Partial Inhibition of Monomeric Proteases. Sulfated Coumarins Induce Regulation, not just Inhibition, of Thrombin” (Scientific Reports, 2016)
“Also recorded” adds a separate entry of the source. Values belong to the molecule of their own block, whether it stands above or below them.

What was measured:
thrombin [1] = biological target: thrombin (Homo sapiens, UniProt P00734); assay: Chromogenic substrate hydrolysis assay, thrombin inhibition (Spectrozyme TH); assay type: biochemical; set-up: 6 nM plasma α-thrombin; purchased Haematologic Technologies (Essex Junction, VT); settings: for thrombin inhibition (in words): up to 250 μM; for efficacy of thrombin inhibition (ΔY) / IC50: pH 7.4, 25 °C; for efficacy of thrombin inhibition (ΔY): at saturation; for IC50: read-out: IC50 against thrombin
Method: Chromogenic substrate hydrolysis assay was used to measure potency of inhibition, as previously reported. The assay was performed using Flexstation III (Molecular Devices, Sunnyvale, CA) by monitoring substrate hydrolysis at 405 nm. For thrombin and its mutants, 180 μL of buffer (20 mM Tris-HCl, 100 mM NaCl, 2.5 mM CaCl2, 0.1% (polyethylene glycol) PEG 8000, pH 7.4) was added to each well followed by 5 μL of 240 nM thrombin and 10 μL of sulfated coumarin in DMSO to give 0.002 to 250 μM final concentration (or 10 μL of DMSO alone). After incubation for 10 min at 25 °C, 5 μL of 2 mM Spectrozyme TH was added to each well simultaneously and allowed to react for 60 seconds at 25 °C while simultaneously monitoring the reaction to obtain the rate of increase in A405. Identical experimental conditions were used for reactions in the presence of antithrombin, except for 100 nM of antithrombin added prior to the addition of the substrate.
For factor XIa inhibition studies, 85 μL of buffer (50 mM Tris-HCl, 150 mM NaCl, 0.1% PEG 8000, 0.02% Tween 80, pH 7.4) was added to each well, followed by 7 μL of 15.3 nM enzyme and 3 μL of sulfated coumarin (3.75–500 μM final concentration) and incubated for 10 min at 37 °C. After the incubation period, 5 μL of 6.9 mM S-2366 was added to each well simultaneously and allowed to react for 300 sec at 37 °C. For factor Xa assay, 180 μL of buffer (20 mM Tris-HCl, 100 mM NaCl, 2.5 mM CaCl2, 0.1% PEG 8000, 0.02% Tween 80, pH 7.4) was added to each well followed by 5 μL of 43.5 nM enzyme, 10 μL of sulfated coumarin (0.002–250 μM final concentration). After a 10 min incubation, 5 μL of 5 mM Spectrozyme FXa was added to each well simultaneously and allowed to react for 300 seconds at 37 °C. The slopes generated from each experiment were used to calculate the fractional residual activity (Y) at each concentration of the inhibitor, and analyzed using logistic equation 1, in which YM is the maximum efficacy, Y0 is minimum efficacy and HS is the Hill slope.

thrombin [2] = settings: cited from earlier work; for efficacy of thrombin inhibition (ΔY): orthosteric inhibitors
thrombin [3] = biological target: thrombin; set-up: method as in PMID 2007587; settings: read-out: affinity for thrombin; cited from earlier work

Molecule: O=c1oc2cc(OS(=O)(=O)O)ccc2c(-c2ccccc2)c1-c1ccc(OS(=O)(=O)O)cc1 [2y]
thrombin inhibition (in words) (thrombin [1]): not all 4-aryl derivatives were active; also recorded: complete absence of inhibition potential

thrombin inhibition (in words) (thrombin [1]): not all 4-aryl derivatives were active
Molecule: O=c1oc2c(Cl)cc(Cl)cc2c(-c2ccccc2)c1-c1ccc(OS(=O)(=O)O)cc1 [2x]

thrombin inhibition (in words) (thrombin [1]): not all 4-aryl derivatives were active
Molecule: O=c1oc2cc(OS(=O)(=O)O)ccc2c(-c2ccccc2)c1-c1ccc(Br)cc1 [2o]

Molecule: Cc1ccc(C(=O)Nc2ccc(S(=O)(=O)O)c3cc(S(=O)(=O)O)cc(S(=O)(=O)O)c23)cc1NC(=O)c1cccc(NC(=O)Nc2cccc(C(=O)Nc3cc(C(=O)Nc4ccc(S(=O)(=O)O)c5cc(S(=O)(=O)O)cc(S(=O)(=O)O)c45)ccc3C)c2)c1 [suramin]
IC50 (thrombin [2]; read-out: IC50 of thrombin inhibition): 20 to 40 µM

thrombin inhibition (in words) (thrombin [1]): not all 4-aryl derivatives were active
Molecule: O=c1oc2cc(OS(=O)(=O)O)ccc2c(-c2ccccc2)c1-c1ccc(O)c(OS(=O)(=O)O)c1 [2w]

thrombin inhibition (in words) (thrombin [1]): active
Molecule: O=c1oc2cc(OS(=O)(=O)O)ccc2c(-c2ccccc2)c1-c1cccc(Cl)c1 [2e]

efficacy of thrombin inhibition (ΔY) (thrombin [1]): 60%
Molecule: O=c1oc2cc(OCCCn3cc(COc4ccc5cc(-c6ccc(OS(=O)(=O)O)cc6)c(=O)oc5c4)nn3)ccc2cc1-c1ccc(OS(=O)(=O)O)cc1 [3c]

efficacy of thrombin inhibition (ΔY) (thrombin [1]): 58% | IC50 (thrombin [1]): ≤ 1 µM
Molecule: O=c1oc2cc(OCCCCn3cc(COc4ccc5c(-c6ccccc6)c(-c6ccc(OS(=O)(=O)O)cc6)c(=O)oc5c4)nn3)ccc2c(-c2ccccc2)c1-c1ccc(OS(=O)(=O)O)cc1 [3b]

thrombin inhibition (in words) (thrombin [1]): not all 4-aryl derivatives were active
Molecule: O=c1oc2ccc(OS(=O)(=O)O)cc2c(-c2ccccc2)c1-c1ccc(Cl)cc1 [2l]

thrombin inhibition (in words) (thrombin [1]): active
Molecule: O=c1oc2cc(OS(=O)(=O)O)ccc2c(-c2ccccc2)c1-c1ccc(Cl)cc1Cl [2k]

Molecule: CC1CNc2c(cccc2S(=O)(=O)N[C@@H](CCCNC(=N)N)C(=O)N2CC[C@@H](C)C[C@@H]2C(=O)O)C1 (stereo partly shown) [argatroban]
efficacy of thrombin inhibition (ΔY) (thrombin [2]): 100%

Molecule: Heparin hexasaccharide
thrombin inhibition (in words) (thrombin [2]): not an inhibitor | Kd (thrombin [3]): ~8 µM

efficacy of thrombin inhibition (ΔY) (thrombin [1]): 73% | IC50 (thrombin [1]): ≤ 1 µM
Molecule: O=c1oc2cc(OCCCn3cc(COc4ccc5c(-c6ccccc6)c(-c6ccc(OS(=O)(=O)O)cc6)c(=O)oc5c4)nn3)ccc2c(-c2ccccc2)c1-c1ccc(OS(=O)(=O)O)cc1 [3a]

Molecule: [H]/N=C(/N)c1ccc(NCc2nc3cc(C(=O)N(CCC(=O)O)c4ccccn4)ccc3n2C)cc1 [dabigatran]
efficacy of thrombin inhibition (ΔY) (thrombin [2]): 100%

thrombin inhibition (in words) (thrombin [1]): not all 4-aryl derivatives were active
Molecule: O=c1oc2cc(OS(=O)(=O)O)ccc2c(-c2ccccc2)c1-c1ccccc1Cl [2d]

thrombin inhibition (in words) (thrombin [1]): active
Molecule: O=c1oc2cc(OS(=O)(=O)O)ccc2c(Cc2ccc(Cl)cc2)c1-c1ccccc1 [2p]
